Test results as given in US7754758B2, “Pyrrolidine derivatives acting as CCR3-receptor antagonists” (Novartis AG, priority 2004, dated 2010).

Molecular target: T1, human CCR-3 (Homo sapiens, UniProt P51677)
T1 construct: expressed in transfected cells; host or cells: rat basophil leukaemia (RBL-2H3) cells, membrane preparation
T1 sequence (P51677 1-355): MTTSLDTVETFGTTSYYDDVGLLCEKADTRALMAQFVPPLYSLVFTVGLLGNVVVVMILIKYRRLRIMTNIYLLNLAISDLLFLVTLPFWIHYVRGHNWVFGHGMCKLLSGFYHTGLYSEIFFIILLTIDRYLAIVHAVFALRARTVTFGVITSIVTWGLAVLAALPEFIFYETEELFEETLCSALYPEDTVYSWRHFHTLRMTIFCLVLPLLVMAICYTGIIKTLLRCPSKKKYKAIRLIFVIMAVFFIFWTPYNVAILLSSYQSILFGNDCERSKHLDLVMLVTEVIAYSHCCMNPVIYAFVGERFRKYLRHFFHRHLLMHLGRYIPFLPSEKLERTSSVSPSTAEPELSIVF
Test: [125I]-human eotaxin binding to CCR-3, SPA assay
Details: inhibition of [125I]-human eotaxin binding; membranes of RBL-2H3 cells stably expressing CCR3; 4 hours at room temperature
Description: Recombinant cells expressing human CCR-3 are captured by wheatgerm agglutinin (WGA) polyvinyltoluidene (PVT) SPA beads (available from Amersham), through a specific interaction between the WGA and carbohydrate residues of glycoproteins on the surface of the cells. [^125I]-human eotaxin (available from Amersham) binds specifically to CCR-3 receptors bringing the [^125I]-human eotaxin in close proximity to the SPA beads. Emitted â-particles from the [^125I]-human eotaxin excite, by its proximity, the fluorophore in the beads and produce light.
Preparation of Assay Buffer: 5.96 g HEPES and 7.0 g sodium chloride are dissolved in distilled water and 1 M aqueous CaCl2 (1 ml) and 1M aqueous MgCl2 (5 ml) are added. The pH is adjusted to 7.6 with NaOH and the solution made to a final volume of 1 l using distilled water. 5 g bovine serum albumin and 0.1 g sodium azide are then dissolved in the solution and the resulting buffer stored at 4° C. […]
Preparation of membranes: Confluent rat basophil leukaemia (RBL-2H3) cells stably expressing CCR3 are removed from tissue culture flasks using enzyme-free cell dissociation buffer and resuspended in phosphate-buffered saline. […] The resulting scintillations are counted using a Canberra Packard TopCount, each well being counted for 1 minute. […]

IC50 [nM] | SMILES
446 | O=C(NCCCN1CCC(Oc2ccc(F)cc2)C1)Nc1ccc(F)c(F)c1 (centres unmarked) [Example 3]
270 | COc1cccc(NC(=O)NCCCN2CCC(Oc3ccc(F)cc3)C2)c1 (centres unmarked) [Example 2, 1-{3-[3-(4-fluorophenoxy)pyrrolidine-1-yl]propyl}-3-(3-methoxyphenyl)-urea]
